The source made the active and inactive calls.
Columns and labels:
[1] = cytotoxicity toward NIH3T3 fibroblasts, dose response, counter-screen, cell-based, ATP luminescence, mouse fibroblasts (AID 2010); type: functional;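 also: cells exposed to compound for about 90 hours before reading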
[2] = inhibitors of intracellular T. cruzi replication, confirmation, NIH3T3 host cells, beta-gal luminescence (AID 2044); type: functional, cell-based;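 also: intracellular parasites grown in NIH/3T3 mouse fibroblasts as host cells; luminescent beta-galactosidase reporter signal from transgenic T. cruzi replicating inside host cells; inhibitors lower the luminescence signal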
Estrogen receptor beta [3] = target: T1, Estrogen receptor beta (Homo sapiens, UniProt Q92731); assay: ERβ–SRC-3 coactivator interaction inhibitors, confirmation, orthogonal assay, biochemical, ELISA, streptavidin-HRP readout (AID 1060)
T1 sequence (Q92731 whole entry): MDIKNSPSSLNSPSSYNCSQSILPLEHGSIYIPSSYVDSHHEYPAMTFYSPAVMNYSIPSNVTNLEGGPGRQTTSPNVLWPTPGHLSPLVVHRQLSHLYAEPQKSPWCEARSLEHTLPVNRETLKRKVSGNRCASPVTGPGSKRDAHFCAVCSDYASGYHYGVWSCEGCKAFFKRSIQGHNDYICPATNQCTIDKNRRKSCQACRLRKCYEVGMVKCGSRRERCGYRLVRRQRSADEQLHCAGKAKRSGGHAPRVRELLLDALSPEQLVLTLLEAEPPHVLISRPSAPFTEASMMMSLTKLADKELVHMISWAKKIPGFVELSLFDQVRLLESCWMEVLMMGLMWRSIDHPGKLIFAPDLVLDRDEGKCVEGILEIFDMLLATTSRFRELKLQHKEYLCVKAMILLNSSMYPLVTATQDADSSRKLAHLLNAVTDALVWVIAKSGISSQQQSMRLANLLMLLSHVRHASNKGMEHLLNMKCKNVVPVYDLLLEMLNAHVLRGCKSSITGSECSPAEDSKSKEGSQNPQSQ

Estrogen receptor beta [4] = target: T1, Estrogen receptor beta
[5] = Luminescence Cell-Based Dose Confirmation HTS to Identify Activators of 5'UTR Stem-Loop Driven Alpha-Synuclein mRNA Translation in H4 Neuroglioblastoma Cells. [Related pubchem assays: 1829 (Project Summary), 1814 (Primary HTS)]; type: functional
[6] = Luminescence Cell-Based Dose Response HTS to Identify Activators of Luciferase Translation or Activity in H4 […] Cells. [Related pubchem assays: 1829 (Project Summary), 1814 (Primary HTS)]; type: functional
[7] = target: Serine/threonine-protein phosphatase PP1-alpha catalytic subunit (Homo sapiens, UniProt P62136); assay: PP1 phosphatase inhibitors, dose response, biochemical, fluorescence (AID 2394)
Chain of Serine/threonine-protein phosphatase PP1-alpha catalytic subunit (P62136 whole entry): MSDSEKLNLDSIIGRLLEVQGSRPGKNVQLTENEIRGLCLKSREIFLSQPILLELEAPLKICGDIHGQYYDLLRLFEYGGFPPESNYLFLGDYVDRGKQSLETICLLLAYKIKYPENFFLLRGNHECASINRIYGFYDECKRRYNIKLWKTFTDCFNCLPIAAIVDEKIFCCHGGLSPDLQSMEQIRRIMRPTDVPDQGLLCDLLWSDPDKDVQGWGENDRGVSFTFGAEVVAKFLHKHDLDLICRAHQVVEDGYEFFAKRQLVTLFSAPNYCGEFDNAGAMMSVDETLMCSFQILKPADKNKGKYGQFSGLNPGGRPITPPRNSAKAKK

SUMO-activating enzyme [8] = target: T2, SUMO-activating enzyme (Homo sapiens, UniProt Q9UBT2); assay: inhibitors of in vitro SUMOylation cascade, primary screen, biochemical, HTRF, uHTS (AID 2006); type: protein-complex assay
T2 sequence (Q9UBE0 whole entry): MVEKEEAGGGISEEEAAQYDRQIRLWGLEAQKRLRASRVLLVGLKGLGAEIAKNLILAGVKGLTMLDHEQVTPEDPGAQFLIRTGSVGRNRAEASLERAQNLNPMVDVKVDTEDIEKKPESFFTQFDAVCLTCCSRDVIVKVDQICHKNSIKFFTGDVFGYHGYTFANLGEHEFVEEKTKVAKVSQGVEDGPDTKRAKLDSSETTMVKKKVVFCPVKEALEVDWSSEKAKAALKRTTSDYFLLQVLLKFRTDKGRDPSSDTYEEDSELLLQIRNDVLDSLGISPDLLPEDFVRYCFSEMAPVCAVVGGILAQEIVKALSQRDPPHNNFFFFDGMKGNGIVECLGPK
T2 sequence (Q9UBT2 whole entry): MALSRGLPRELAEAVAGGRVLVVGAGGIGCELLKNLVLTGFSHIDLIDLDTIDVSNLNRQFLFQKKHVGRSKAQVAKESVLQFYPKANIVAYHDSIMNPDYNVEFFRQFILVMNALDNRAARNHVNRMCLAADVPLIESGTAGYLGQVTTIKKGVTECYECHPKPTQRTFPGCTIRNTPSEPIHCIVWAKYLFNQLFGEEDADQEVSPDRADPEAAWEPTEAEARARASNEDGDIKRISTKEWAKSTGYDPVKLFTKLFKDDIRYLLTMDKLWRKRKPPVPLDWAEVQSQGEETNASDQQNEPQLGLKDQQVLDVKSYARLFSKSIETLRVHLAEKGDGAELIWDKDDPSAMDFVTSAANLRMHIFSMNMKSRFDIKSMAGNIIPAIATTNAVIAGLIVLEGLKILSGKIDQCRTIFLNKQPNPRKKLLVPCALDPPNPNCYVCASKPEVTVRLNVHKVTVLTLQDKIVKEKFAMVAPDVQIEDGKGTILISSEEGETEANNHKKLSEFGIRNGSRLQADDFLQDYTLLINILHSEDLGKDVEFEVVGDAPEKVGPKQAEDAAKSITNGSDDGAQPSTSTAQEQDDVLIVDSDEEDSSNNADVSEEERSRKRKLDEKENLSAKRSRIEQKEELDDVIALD

SUMO-activating enzyme [9] = target: T2, SUMO-activating enzyme; assay: SUMOylation inhibitor hit validation, confirmation, SUMOylation inhibitor project, biochemical, AlphaScreen (AID 2018); type: functional
Protein RecA = target: T3, Protein RecA (Mycobacterium tuberculosis, UniProt P9WHJ3); assay: Fluorescence Cell-Free Homogeneous Dose Retest to Identify Inhibitors of RecA-Intein Splicing Activity. [Related pubchem assays (depositor defined):AID2097, AID2223, AID489010, AID492950]; type: functional
T3 sequence (P9WHJ3 whole entry): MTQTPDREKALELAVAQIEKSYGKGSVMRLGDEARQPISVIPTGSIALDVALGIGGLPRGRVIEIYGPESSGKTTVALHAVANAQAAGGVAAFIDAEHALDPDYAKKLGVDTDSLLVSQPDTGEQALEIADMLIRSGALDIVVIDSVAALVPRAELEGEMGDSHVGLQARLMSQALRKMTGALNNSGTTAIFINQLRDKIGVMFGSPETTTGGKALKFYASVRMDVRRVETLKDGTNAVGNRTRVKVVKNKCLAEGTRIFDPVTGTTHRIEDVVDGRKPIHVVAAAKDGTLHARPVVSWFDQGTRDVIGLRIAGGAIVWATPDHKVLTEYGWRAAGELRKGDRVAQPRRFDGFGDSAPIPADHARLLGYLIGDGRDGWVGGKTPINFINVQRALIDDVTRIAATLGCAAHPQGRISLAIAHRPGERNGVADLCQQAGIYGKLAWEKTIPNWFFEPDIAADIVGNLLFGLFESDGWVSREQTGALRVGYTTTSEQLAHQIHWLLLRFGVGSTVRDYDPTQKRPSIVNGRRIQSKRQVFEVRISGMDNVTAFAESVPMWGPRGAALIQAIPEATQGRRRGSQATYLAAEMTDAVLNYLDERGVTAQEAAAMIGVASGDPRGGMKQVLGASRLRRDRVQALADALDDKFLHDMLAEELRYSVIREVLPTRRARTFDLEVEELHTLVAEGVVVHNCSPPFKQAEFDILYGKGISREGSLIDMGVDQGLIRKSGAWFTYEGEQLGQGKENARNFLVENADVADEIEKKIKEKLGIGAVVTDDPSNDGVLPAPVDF

[10] = target: T4, Replicative DNA helicase DnaB (Mycobacterium tuberculosis, UniProt P9WMR3); assay: DnaB intein splicing inhibitors, dose response, biochemical, cell-free fluorescence (AID 449749); type: functional
T4 sequence (P9WMR3 whole entry): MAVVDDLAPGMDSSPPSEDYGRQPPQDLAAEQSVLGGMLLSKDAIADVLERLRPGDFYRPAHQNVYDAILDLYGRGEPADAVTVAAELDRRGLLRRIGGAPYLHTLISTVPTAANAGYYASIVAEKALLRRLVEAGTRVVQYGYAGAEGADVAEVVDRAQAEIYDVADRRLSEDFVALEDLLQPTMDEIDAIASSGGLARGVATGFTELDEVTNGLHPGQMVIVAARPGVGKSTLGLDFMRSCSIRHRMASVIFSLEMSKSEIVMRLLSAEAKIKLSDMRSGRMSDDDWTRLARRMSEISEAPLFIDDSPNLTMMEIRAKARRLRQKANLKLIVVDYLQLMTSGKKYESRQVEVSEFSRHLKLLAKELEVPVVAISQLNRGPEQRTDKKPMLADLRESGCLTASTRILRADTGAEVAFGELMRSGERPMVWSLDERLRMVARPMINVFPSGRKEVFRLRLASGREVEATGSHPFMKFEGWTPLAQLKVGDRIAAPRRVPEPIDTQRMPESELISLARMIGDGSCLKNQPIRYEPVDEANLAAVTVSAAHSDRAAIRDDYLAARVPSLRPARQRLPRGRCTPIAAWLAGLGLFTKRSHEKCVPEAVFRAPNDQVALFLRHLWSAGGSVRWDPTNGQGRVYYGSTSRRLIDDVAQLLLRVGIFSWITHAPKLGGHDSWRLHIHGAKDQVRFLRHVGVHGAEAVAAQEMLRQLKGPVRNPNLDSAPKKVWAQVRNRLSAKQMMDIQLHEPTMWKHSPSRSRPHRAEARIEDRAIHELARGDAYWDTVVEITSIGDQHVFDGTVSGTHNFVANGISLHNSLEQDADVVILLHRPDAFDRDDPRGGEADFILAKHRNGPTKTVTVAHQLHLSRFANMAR

H4 = assay: Luminescence Cell-Based Dose Response HTS to Identify Activators of 5'UTR Stem-Loop Driven Prion Protein mRNA Translation in H4 Neuroglioblastoma Cells. [Related pubchem assays: 1829 (Project Summary), 1814 (Primary HTS)]; type: functional; details: Homo sapiens
[11] = target: T5, Serine/threonine-protein phosphatase (Homo sapiens, UniProt Q9BPW0); assay: PP5 phosphatase inhibitors, dose response, biochemical, fluorescence (AID 2395)
T5 sequence (Q9BPW0 whole entry): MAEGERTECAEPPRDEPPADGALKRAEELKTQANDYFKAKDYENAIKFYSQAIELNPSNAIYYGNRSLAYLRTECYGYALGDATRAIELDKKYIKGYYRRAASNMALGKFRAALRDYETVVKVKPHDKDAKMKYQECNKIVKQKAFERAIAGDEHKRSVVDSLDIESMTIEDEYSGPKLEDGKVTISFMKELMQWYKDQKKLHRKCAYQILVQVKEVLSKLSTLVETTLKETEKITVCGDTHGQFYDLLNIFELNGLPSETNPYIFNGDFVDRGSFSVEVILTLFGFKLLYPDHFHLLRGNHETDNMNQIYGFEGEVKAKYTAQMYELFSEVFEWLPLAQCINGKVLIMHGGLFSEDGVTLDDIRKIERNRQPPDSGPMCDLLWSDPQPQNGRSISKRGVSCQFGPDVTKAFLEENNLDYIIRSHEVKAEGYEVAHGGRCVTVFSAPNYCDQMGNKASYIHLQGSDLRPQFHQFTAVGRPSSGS

Bcl-2-like protein 10 = target: T6, Bcl-2-like protein 10 (Homo sapiens, UniProt Q9HD36); assay: displacers of TR3 peptide from Bcl-B, primary screen, selectivity assay for Bfl-1 inhibitor project, biochemical, fluorescence polarization, FITC-TR3 peptide (AID 748);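 also: fluorescence polarization from a fluorescein-labelled TR3 peptide binding purified Bcl-B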
T6 sequence (Q9HD36 whole entry): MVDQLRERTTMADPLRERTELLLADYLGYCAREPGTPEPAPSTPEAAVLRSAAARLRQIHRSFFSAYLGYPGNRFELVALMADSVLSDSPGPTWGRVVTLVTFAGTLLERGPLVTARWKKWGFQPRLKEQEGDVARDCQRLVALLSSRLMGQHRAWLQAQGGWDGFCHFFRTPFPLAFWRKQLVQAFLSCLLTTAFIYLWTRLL

Genome polyprotein = Genome polyprotein (dengue virus type 2, UniProt P29990); assay: Dengue-2 NS5 methyltransferase inhibitors, primary screen, biochemical, confirmation dose response (AID 588689); type: functional
Chain of Genome polyprotein (P29990 2492-3391 limits assumed): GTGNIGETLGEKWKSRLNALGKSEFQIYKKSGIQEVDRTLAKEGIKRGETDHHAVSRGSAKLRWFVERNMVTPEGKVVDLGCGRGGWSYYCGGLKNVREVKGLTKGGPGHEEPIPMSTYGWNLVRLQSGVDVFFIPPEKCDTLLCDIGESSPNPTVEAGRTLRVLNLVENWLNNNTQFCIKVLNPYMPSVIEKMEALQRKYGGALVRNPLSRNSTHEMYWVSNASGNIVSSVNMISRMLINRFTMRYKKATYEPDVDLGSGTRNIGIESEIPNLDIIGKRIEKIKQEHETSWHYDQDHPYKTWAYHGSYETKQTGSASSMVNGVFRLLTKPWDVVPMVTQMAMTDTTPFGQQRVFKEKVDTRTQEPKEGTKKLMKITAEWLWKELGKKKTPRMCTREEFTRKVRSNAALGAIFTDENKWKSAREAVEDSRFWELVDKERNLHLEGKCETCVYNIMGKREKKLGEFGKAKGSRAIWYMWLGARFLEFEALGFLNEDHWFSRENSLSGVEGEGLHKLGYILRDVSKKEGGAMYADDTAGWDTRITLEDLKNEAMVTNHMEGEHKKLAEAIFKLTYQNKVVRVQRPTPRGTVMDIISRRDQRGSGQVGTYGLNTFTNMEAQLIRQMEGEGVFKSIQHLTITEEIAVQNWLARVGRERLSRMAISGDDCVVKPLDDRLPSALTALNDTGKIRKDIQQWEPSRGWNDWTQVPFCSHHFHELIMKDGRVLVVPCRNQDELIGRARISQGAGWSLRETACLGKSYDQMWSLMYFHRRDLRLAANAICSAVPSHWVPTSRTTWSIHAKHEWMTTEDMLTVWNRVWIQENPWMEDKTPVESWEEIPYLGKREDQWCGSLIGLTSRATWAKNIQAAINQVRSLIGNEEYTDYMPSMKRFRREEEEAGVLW

[12] = target: T7, Apoptotic protease-activating factor 1 (Homo sapiens, UniProt O14727); type: functional
T7 sequence (O14727 whole entry): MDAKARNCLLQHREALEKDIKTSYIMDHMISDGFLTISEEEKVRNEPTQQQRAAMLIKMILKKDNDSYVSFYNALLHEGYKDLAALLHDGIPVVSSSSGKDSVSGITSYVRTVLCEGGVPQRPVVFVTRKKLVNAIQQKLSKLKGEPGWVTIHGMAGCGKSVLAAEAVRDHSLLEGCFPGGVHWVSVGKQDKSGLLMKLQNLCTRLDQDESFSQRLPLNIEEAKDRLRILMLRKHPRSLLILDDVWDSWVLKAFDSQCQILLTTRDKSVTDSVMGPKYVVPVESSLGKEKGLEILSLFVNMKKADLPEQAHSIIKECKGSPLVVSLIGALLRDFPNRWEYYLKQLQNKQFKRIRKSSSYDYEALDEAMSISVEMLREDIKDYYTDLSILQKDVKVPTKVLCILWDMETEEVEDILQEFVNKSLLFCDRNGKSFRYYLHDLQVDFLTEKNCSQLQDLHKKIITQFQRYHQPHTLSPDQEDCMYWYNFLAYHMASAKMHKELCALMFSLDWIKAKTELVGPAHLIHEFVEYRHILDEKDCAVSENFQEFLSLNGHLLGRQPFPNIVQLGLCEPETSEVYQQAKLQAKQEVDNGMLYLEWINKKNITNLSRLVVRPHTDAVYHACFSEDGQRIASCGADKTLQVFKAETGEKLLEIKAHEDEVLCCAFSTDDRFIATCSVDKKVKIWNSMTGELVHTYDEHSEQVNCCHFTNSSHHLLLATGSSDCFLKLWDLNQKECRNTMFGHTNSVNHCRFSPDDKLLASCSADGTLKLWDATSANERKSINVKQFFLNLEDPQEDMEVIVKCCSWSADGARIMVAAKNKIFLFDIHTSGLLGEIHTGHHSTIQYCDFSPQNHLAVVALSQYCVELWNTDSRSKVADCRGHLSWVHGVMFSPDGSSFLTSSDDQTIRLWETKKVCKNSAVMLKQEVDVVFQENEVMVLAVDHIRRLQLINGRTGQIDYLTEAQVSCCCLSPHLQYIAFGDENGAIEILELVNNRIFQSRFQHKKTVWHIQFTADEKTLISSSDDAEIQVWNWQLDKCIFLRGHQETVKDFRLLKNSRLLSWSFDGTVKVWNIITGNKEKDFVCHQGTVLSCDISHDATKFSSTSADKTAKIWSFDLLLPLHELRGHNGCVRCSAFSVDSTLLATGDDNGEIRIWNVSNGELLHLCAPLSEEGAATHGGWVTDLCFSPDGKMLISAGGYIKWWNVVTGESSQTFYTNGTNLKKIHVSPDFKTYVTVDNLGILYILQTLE

Ion channel NompC = Ion channel NompC (Danio rerio, UniProt Q7T1G6); assay: Fluorescence counterscreen assay for TRPML3 agonists: dose response cell-based high-throughput screening assay to identify agonists of the transient receptor potential channel N1 (TRPN1). [Related pubchem assays: 1526, 1424, 1448 ]; type: functional
Chain of Ion channel NompC (Q7T1G6 whole entry): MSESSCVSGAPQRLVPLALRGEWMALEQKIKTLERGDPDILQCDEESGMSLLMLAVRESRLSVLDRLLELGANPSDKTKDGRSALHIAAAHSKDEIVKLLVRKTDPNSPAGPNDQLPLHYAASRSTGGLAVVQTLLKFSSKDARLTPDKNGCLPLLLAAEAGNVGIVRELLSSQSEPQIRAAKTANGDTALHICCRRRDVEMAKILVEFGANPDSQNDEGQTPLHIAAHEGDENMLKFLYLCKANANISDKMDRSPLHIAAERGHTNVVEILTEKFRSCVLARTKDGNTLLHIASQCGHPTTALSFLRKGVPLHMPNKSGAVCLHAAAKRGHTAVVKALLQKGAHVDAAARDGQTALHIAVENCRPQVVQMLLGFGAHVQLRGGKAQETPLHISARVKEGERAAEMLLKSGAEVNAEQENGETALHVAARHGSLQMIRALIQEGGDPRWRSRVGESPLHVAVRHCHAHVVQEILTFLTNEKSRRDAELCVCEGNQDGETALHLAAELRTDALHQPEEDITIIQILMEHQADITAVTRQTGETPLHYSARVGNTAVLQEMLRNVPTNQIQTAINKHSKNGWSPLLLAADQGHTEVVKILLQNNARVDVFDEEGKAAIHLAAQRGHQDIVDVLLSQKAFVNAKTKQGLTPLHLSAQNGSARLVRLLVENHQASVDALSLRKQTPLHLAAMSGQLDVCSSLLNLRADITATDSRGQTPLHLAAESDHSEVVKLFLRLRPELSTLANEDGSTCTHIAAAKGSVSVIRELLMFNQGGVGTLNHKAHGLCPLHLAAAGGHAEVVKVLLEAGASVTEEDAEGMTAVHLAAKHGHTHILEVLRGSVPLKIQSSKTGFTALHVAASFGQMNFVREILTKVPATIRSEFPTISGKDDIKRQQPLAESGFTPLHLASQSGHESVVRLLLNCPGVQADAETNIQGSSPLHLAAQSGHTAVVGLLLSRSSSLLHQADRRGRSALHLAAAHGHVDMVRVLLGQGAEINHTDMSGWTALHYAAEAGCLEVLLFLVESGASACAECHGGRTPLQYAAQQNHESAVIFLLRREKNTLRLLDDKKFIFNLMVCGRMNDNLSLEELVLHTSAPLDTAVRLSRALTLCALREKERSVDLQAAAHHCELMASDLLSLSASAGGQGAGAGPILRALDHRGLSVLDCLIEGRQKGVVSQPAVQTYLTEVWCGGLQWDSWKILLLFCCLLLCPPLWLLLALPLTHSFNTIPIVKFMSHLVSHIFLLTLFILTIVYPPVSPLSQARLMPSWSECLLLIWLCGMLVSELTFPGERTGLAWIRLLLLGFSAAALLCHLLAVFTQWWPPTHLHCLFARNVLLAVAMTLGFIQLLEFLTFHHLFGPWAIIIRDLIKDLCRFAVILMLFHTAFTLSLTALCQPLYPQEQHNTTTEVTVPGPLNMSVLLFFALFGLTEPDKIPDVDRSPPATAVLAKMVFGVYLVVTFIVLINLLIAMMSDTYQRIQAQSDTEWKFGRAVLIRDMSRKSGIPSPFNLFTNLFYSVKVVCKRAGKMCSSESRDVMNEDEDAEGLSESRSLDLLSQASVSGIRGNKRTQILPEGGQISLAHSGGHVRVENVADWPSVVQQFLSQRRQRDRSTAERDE

Mucolipin-3 = target: T8, Mucolipin-3 (Homo sapiens, UniProt Q8TDD5); assay: Dose response cell-based high-throughput screening assay for agonists of the transient receptor potential channel ML3 (TRPML3). [Related pubchem assays: 1526, 1424, 1448 ]; type: functional
T8 sequence (Q8TDD5 whole entry): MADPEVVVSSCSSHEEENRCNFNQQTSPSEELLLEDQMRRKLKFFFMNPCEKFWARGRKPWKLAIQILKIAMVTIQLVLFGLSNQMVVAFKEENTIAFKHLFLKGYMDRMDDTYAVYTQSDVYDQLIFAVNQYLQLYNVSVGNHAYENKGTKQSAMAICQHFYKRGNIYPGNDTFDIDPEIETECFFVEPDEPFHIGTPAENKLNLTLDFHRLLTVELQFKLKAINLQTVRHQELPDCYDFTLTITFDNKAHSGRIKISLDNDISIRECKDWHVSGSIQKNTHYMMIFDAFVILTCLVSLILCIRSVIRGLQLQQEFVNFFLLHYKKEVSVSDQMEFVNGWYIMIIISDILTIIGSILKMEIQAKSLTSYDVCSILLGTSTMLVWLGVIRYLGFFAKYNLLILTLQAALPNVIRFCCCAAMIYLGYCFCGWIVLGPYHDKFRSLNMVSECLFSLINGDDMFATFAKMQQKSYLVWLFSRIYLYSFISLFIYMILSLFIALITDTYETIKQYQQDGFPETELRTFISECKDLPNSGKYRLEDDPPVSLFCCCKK

SMILES: O=C(CNC1CCN(Cc2ccccc2)CC1)Nc1ccc(S(=O)(=O)N2CCCCC2)cc1
- EC50 [1]: > 30 µM (not active)
- EC50 (cells): 0.019 µM (active)
- EC50 [2]: < 0.1 µM (active)

SMILES: Oc1c2c(nc3ccccc13)C(=C1CCCC1)CC2
- IC50 (Estrogen receptor beta [3]): > 109 µM (not active)
- IC50 (Estrogen receptor beta [4]): 1.69 µM (active)

SMILES: O=C1c2ccccc2C(=O)C12OC2c1ccc(Cl)cc1 (stereo unspecified)
- EC50 [5]: > 120 µM (not active)
- EC50 [6]: > 120 µM (not active)
- IC50 [7]: > 67 µM (not active)
- IC50 (SUMO-activating enzyme [8]): 21.2 µM (active)
- IC50 (SUMO-activating enzyme [9]): 7.05 µM (active)
- EC50 (Protein RecA): 22.2 µM (inconclusive)
- AC50 [10]: 1.61 µM (active)
- EC50 (H4): > 120 µM (not active)
- IC50 [11]: > 2.48 µM (active)

SMILES: Nc1cc2nsnc2cc1Br
- IC50 (Bcl-2-like protein 10): 13.3 µM (active)
- IC50 (Genome polyprotein): 48.7 µM (active)
- IC50 [7]: > 67 µM (not active)
- IC50 [12]: 3.21 µM (active)
- IC50 [11]: > 2.48 µM (active)

SMILES: CCOC(=O)c1cnn(-c2nc(SC)nc3sc4c(c23)CCC4)c1N
- IC50 (Estrogen receptor beta [3]): 0.069 µM (not active)
- IC50 (Estrogen receptor beta [4]): > 50 µM (not active)

SMILES: Cc1ccc(SCCOCCN2CCc3ccccc3C2)cc1
- EC50 [1]: > 60 µM (not active)
- EC50 (cells): 0.037 µM (active)
- EC50 [2]: < 0.1 µM (active)

SMILES: O=C1CCCN1CC#CCN1CCCC1 [OXOTREMORINE]
- EC50 (Ion channel NompC): > 29.9 µM (not active)
- EC50 (Mucolipin-3): > 29.9 µM (not active)

— ChEMBL document CHEMBL1201862, “PubChem BioAssay data set” (2004)
